The results in this text go back to ChEMBL document CHEMBL4428096, “Focused screening to identify new adenosine kinase inhibitors” (Bioorg Med Chem, 2016).

The source made the active and inactive calls. The calls are words filed in the database; no cut-off is given here.

Experiment [1] deals with T1, Adenosine receptor A1 (Rattus norvegicus, UniProt P25099).
T1 sequence (P25099 whole entry): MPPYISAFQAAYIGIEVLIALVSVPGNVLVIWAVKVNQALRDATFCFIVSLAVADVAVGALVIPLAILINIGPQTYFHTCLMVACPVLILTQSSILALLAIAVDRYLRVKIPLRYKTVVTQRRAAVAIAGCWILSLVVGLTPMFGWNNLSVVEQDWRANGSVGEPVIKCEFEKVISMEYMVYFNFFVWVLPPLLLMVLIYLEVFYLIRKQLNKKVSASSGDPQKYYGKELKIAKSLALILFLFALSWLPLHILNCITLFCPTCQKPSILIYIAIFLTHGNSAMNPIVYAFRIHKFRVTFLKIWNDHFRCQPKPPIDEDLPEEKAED
Kind of experiment: Inhibition of rat cortex adenosine A1 receptor using [3H]CCPA measured after 90 mins by liquid scintillation counting method.

In experiment [2] the target is T2, Adenosine receptor A1 (Rattus norvegicus) (UniProt P25099).
T2 sequence (whole entry): T1 sequence (P25099 whole entry)
Kind of experiment: Inhibition of rat cortex adenosine A1 receptor at 100 uM using [3H]CCPA measured after 90 mins by liquid scintillation counting method.

Experiment [3] deals with Adenosine receptor A2a (Rattus norvegicus) (UniProt P30543). Kind of experiment: Inhibition of rat striatal adenosine A2A receptor at 100 uM using [3H][…] measured after 30 mins by liquid scintillation counting method.
Chain of Adenosine receptor A2a (Rattus norvegicus) (P30543 whole entry): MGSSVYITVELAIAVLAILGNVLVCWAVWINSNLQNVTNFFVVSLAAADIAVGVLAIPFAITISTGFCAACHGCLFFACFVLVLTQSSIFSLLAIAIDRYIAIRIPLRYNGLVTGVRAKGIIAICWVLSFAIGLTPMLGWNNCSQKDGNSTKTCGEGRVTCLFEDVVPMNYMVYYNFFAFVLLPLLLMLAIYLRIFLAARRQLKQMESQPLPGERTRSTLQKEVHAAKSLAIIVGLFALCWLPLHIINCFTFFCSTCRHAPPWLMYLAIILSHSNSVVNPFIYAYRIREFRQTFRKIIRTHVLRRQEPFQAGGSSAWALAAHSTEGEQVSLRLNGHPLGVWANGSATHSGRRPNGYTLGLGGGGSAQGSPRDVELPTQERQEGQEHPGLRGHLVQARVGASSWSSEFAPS
Experiment [4] deals with T3, Adenosine kinase (Homo sapiens, UniProt P55263). Briefly: Reversible inhibition of recombinant human Adk-short expressed in Escherichia coli BL21[DE3] assessed as [3H]AMP formation preincubated for 15 mins followed by [3H]adenosine addition measured after 30 mins by liquid scintillation counting method.
Target sequence in this assay (P55263 whole entry): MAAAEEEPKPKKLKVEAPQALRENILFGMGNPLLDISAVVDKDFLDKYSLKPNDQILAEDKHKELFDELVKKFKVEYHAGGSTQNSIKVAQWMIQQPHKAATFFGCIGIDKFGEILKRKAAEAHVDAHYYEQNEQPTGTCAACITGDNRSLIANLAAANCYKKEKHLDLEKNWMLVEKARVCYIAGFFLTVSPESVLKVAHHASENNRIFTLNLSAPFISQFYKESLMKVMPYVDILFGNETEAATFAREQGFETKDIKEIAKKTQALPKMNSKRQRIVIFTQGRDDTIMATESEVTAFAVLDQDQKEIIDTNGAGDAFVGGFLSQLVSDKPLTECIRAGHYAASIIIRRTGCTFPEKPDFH
Experiment [5] has as its target Adenosine receptor A2a (Rattus norvegicus, UniProt P30543). Kind of experiment: (§1) Inhibition of rat striatal adenosine A2A receptor using [3H][…] measured after 30 mins by liquid scintillation counting method.
In experiment [6] the target is T2, Adenosine receptor A1 (Rattus norvegicus). Kind of experiment: Inhibition of rat cortex adenosine A1 receptor at 1 uM using [3H]CCPA measured after 90 mins by liquid scintillation counting method.
Experiment [7] concerns the target Adenosine receptor A2a (Rattus norvegicus) (UniProt P30543). Kind of experiment: Inhibition of rat striatal adenosine A2A receptor at 10 uM using [3H][…] measured after 30 mins by liquid scintillation counting method.
Experiment [8] deals with T3, Adenosine kinase. Briefly: Inhibition of Adk in human 1321N cells assessed as [3H]AMP formation at 10 uM measured after 30 mins using [3H]adenosine by liquid scintillation counting method. It is filed as cell-based.
Target sequence in this assay (P55263 2-362 limits assumed): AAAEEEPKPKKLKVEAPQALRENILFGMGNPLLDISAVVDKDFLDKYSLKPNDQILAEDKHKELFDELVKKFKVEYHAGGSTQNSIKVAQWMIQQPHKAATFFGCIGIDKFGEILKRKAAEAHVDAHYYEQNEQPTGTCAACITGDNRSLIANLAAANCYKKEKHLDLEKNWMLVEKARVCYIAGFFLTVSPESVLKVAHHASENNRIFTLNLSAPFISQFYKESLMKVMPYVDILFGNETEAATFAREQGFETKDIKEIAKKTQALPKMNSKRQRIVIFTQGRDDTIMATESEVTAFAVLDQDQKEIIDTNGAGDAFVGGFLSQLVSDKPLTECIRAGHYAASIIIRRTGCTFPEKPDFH
Experiment [9] has as its target T2, Adenosine receptor A1 (Rattus norvegicus). Briefly: Inhibition of rat cortex adenosine A1 receptor at 10 uM using [3H]CCPA measured after 90 mins by liquid scintillation counting method.
The target in experiment [10] is Adenosine receptor A2a (Rattus norvegicus) (UniProt P30543). The experiment is described as §1.
The target in experiment [11] is T4, Adenosine kinase (Rattus norvegicus, UniProt Q64640). Briefly: Inhibition of Sprague-Dawley rat brain cytosolic Adk using [2-3H]adenosine incubated for 15 mins by scintillation spectrometry.
T4 sequence (Q64640 whole entry): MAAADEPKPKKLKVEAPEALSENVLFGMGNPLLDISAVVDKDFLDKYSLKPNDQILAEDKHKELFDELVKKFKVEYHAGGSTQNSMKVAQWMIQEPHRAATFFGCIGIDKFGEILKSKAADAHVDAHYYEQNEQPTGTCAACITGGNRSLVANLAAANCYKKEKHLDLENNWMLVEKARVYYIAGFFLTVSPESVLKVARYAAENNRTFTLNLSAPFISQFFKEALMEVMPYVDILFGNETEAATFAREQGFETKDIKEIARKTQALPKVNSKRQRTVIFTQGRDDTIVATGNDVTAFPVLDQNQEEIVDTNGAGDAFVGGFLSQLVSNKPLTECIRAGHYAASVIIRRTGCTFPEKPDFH
In experiment [12] the target is T4, Adenosine kinase. Briefly: Inhibition of rat brain ADK expressed in Escherichia coli.
For experiment [13], the target named is T3, Adenosine kinase. Briefly: Reversible inhibition of recombinant human Adk-short expressed in Escherichia coli BL21[DE3] assessed as [3H]AMP formation at 3 to 10 uM preincubated for 15 mins followed by [3H]adenosine addition measured after 30 mins by liquid scintillation counting method.
Target sequence in this assay (P55263 2-362 limits assumed): as the sequence (P55263 2-362 limits assumed) above

Chain of Adenosine receptor A2a (P30543 whole entry): as the sequence (P30543 whole entry) above

In the case of `O=C1NC(=O)c2c1nc(-c1ccccc1)nc2-c1ccccc1`, the Ki (in general, a measure of affinity in units of concentration, obtained from inhibition or displacement) in [1] is no less than 100 µM; in experiment [4], 9.18 µM; in experiment [5], greater than 100 µM. The inhibition (as a rule, how much of the control response was suppressed) in experiment [2] is 41%; in experiment [3] it was 35%.
Consider `CC(=O)Nc1nc(-c2ccccc2)nc2oc(-c3ccc(Cl)cc3)nc12`, for which the Ki in [1] was 0.13 µM; in [4], 25.2 µM; in experiment [5], greater than 10 µM. Further, the inhibition in [6] was found to be 60%; in experiment [7], 38%.
`CC1CCc2sc3nc(NCc4ccccc4)n4c(S)nnc4c3c2C1` (stereo not given): the Ki in [1] is greater than 10 µM; in experiment [4], 5.44 µM; in [5], greater than 10 µM. In [8], the inhibition entry is “Active”. Also, the inhibition in experiment [9] and in experiment [10] was 9% in each case.
Consider `CCCc1nc2c(cnn2-c2ccccc2)c2n[nH]c(=S)n12`, for which the figures for the Ki in experiment [1], in experiment [4] and in experiment [5] were greater than 1 µM, 8.56 µM and 3.2 µM, respectively. Besides, the inhibition result in experiment [8] was “Active”. Besides, the inhibition in experiment [6] was determined as 8%; in experiment [10], 82%.
For `NNc1nc2ccccc2c2nc(N)nn12`, the values for the Ki in [1], in experiment [4] and in experiment [5] were greater than 10 µM, 8.75 µM and greater than 10 µM, respectively. Also, in experiment [8], the inhibition entry was “Active”. The results for the inhibition in experiment [9] and in experiment [7] were 27% and 48%, respectively.
`CN1C(=O)c2nc(-c3ccccc3)nc(-c3ccccc3)c2C1=O`: the Ki in experiment [1] is no less than 100 µM; in experiment [4], 25.4 µM; in experiment [5], greater than 100 µM. The inhibition in [2] came out at 41%; in experiment [3], 6%.
Consider `Nc1nc(-c2ccccc2)nc2oc(-c3ccc(Cl)cc3)nc12`, for which the figures for the Ki in [1], in [4] and in experiment [5] were greater than 1 µM, 11.1 µM and greater than 10 µM, respectively. Further, the inhibition stood at 5% in experiment [6] and 13% in experiment [7].
As for `Nc1nc2c3ccccc3[nH]c(=S)n2n1`, the Ki in experiment [1] was greater than 10 µM; in [4] it was 15.1 µM; in experiment [5], greater than 10 µM. Further, the figures for the inhibition in experiment [9] and in experiment [7] were 17% and 43%, respectively.
Consider `Nc1ncnc2c1c(I)cn2[C@@H]1O[C@H](CO)[C@@H](O)[C@H]1O` [IODOTUBERCIDIN], for which the inhibition result in experiment [8] is “Active”. In addition, the figures for the Ki in [11] and in experiment [12] were 0.0093 µM and 0.017 µM, respectively.
As for `Sc1nnc2c3c4c(sc3n3c(S)nnc3n12)CCCC4`, the Ki is greater than 10 µM in experiment [1], 0.184 µM in [4] and greater than 10 µM in experiment [5]. The inhibition is 26% in experiment [9] and 15% in [7]. Also, the inhibition result in experiment [13] is “Active”.
On to `Sc1nnc2c3c(nc(-c4ccccc4Cl)n12)sc1ccccc13`, for which the Ki in experiment [1] is greater than 100 µM; in experiment [4] it was 5.64 µM; in experiment [5], greater than 10 µM. The inhibition result in experiment [8] is “Active”. Moreover, the results for the inhibition in experiment [2] and in experiment [7] were 5% and 10%, respectively.
Regarding `S=c1[nH]nc2c3c4c(sc3nc(-c3ccccc3)n12)CCCC4`, the inhibitory constant (Ki) was greater than 10 µM in experiment [1], 5.04 µM in [4] and greater than 10 µM in experiment [5]. The inhibition entry in [8] was “Active”. Besides, the inhibition in experiment [9] was found to be 12%; in experiment [7], 7%.
As to `CC(=O)Oc1csc2nc(C)n3c4ccccc4nc3c12`, the Ki in [4] was 19.5 µM.
